Results on one compound are retold here after ChEMBL document CHEMBL4145608, “Dehydrodiconiferyl Alcohol Inhibits Osteoclast Differentiation and Ovariectomy-Induced Bone Loss through Acting as an Estrogen Receptor Agonist” (J Nat Prod, 2018).

Activity calls are given as the source filed them. The rule behind the calls is not given here.

Test [1] relates to RAW264.7. Nature of the test: Inhibition of RANKL-induced osteoclast differentiation in mouse RAW264.7 cells assessed as decrease in c-Fos mRNA level at 20 uM after 24 hrs in presence of ERbeta antagonist PHTPP by qRT-PCR method. The format is functional, cell-based.
Test [2] concerns RAW264.7. Nature of the test: Inhibition of RANKL-induced osteoclast differentiation in mouse RAW264.7 cells harboring ERbeta siRNA assessed as decrease in NFATc1 mRNA level at 20 uM after 24 hrs by qRT-PCR method. In kind it is functional, cell-based.
For test [3], the target named is T1, Estrogen receptor (Homo sapiens, UniProt P03372).
T1 sequence (P03372 whole entry): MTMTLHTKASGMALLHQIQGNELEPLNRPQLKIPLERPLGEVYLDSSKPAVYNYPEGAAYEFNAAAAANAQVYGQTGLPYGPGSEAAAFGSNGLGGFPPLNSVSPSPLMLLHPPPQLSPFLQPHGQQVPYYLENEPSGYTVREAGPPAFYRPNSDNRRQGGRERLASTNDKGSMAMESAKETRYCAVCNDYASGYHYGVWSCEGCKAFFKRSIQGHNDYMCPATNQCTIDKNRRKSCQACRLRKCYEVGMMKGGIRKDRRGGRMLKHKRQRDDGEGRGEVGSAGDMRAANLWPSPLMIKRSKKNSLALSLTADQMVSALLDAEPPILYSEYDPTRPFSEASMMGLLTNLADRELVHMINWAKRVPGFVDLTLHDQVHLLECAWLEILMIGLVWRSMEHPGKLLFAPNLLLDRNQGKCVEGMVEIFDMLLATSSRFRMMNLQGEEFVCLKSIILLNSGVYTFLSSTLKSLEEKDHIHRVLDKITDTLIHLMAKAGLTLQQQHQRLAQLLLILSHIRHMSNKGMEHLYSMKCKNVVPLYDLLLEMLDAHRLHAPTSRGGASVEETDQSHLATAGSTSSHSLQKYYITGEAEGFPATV
Nature of the test: Inhibition of fluoromone binding to recombinant human full length untagged ERalpha expressed in insect cells after 2 hrs by fluorescence polarization assay. Background: Fluorescence polarisation rises when a labelled molecule tumbles more slowly, as on binding a larger partner.

In test [4] the test system is RAW264.7. Nature of the test: Inhibition of RANKL-induced osteoclast differentiation in mouse RAW264.7 cells assessed as TRAP activity after 5 days in presence of CAMKKbeta inhibitor STO609. In kind it is functional, cell-based.

In the case of `COc1cc(C2Oc3c(OC)cc(/C=C/CO)cc3C2CO)ccc1O` (centres undefined), the inhibition result in test [1], in test [2] and in test [4] was “Active” each time. In addition, the IC50 in test [3] is 61.9 nM.

One may read the IC50 as the concentration needed to halve the response being measured.
